Data taken from PMC8550792, “Evolution of kinase polypharmacology across HSP90 drug discovery” (Cell Chemical Biology, 2021).

Columns and labels:
Assay in all cases: biochemical
Assay type in all cases: biochemical
382 unique human kinases [1] = target: T1, 382 unique human kinases (Homo sapiens, UniProt P00519, M351T); conditions: ABL1 (M351T), [ATP] 10 µM, compound 10 uM; for remaining activity at 10 µM: read-out: % Enzyme Activity (relative to DMSO controls)
T1 construct: purchased Reaction Biology (HotSpot contract assay)

382 unique human kinases [2] = target: T2, 382 unique human kinases (Homo sapiens, UniProt P34947); conditions: GRK5, 10 uM; for remaining activity at 10 µM: read-out: % Enzyme Activity (relative to DMSO controls)
T2 construct: purchased Reaction Biology (HotSpot contract assay)

382 unique human kinases [3] = target: T3, 382 unique human kinases (Homo sapiens, UniProt P78368); conditions: CK1g2, 10 uM; for remaining activity at 10 µM: read-out: % Enzyme Activity (relative to DMSO controls)
T3 construct: purchased Reaction Biology (HotSpot contract assay)

382 unique human kinases [4] = target: T4, 382 unique human kinases (Homo sapiens, UniProt P78527); conditions: DNA-PK, 10 uM; for remaining activity at 10 µM: read-out: % Enzyme Activity (relative to DMSO controls)
T4 construct: purchased Reaction Biology (HotSpot contract assay)

382 unique human kinases [5] = target: T5, 382 unique human kinases (Homo sapiens, UniProt Q6VAB6, R676S); conditions: KSR2 (R676S), 10 uM; for remaining activity at 10 µM: read-out: % Enzyme Activity (relative to DMSO controls)
T5 construct: purchased Reaction Biology (HotSpot contract assay)
T5 sequence (Q6VAB6 1-950 R676S): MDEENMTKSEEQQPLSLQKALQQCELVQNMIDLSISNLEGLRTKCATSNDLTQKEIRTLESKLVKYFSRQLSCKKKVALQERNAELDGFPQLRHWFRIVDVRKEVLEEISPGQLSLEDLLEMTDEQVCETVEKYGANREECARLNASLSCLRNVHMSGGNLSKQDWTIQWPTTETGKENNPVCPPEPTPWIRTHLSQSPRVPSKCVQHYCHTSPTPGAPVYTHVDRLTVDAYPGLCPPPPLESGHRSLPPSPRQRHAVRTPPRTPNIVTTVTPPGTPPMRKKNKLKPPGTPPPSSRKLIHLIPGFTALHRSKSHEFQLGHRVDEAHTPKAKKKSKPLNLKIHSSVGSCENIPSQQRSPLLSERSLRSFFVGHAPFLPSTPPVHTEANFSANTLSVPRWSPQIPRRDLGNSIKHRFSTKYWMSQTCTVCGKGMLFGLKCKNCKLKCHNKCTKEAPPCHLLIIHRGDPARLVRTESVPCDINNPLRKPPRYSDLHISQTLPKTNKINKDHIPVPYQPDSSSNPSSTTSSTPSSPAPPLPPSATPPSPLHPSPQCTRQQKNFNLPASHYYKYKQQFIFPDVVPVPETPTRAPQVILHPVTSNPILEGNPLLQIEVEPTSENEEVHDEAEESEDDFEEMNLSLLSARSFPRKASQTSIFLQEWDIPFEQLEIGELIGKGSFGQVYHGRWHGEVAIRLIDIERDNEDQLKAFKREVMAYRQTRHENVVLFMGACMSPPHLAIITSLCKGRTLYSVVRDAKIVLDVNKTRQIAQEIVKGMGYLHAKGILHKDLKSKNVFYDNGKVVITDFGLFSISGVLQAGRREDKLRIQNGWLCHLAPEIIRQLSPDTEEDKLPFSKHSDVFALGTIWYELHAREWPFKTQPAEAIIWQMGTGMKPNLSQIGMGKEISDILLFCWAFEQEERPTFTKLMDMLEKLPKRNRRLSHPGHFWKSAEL

382 unique human kinases [6] = target: T6, 382 unique human kinases (Homo sapiens, UniProt P00533, A750P/DEL747-749); conditions: EGFR (d747-749/A750P), 10 uM; for remaining activity at 10 µM: read-out: % Enzyme Activity (relative to DMSO controls)
T6 construct: purchased Reaction Biology (HotSpot contract assay)

382 unique human kinases [7] = target: T7, 382 unique human kinases (Homo sapiens, UniProt P10721); conditions: c-Kit, 10 uM; for remaining activity at 10 µM: read-out: % Enzyme Activity (relative to DMSO controls)
T7 construct: purchased Reaction Biology (HotSpot contract assay)

382 unique human kinases [8] = target: T8, 382 unique human kinases (Homo sapiens, UniProt P10721, D820E); conditions: c-Kit (D820E), 10 uM; for remaining activity at 10 µM: read-out: % Enzyme Activity (relative to DMSO controls)
T8 construct: purchased Reaction Biology (HotSpot contract assay)

382 unique human kinases [9] = target: T9, 382 unique human kinases (Homo sapiens, UniProt Q05397); conditions: kinase FAK/PTK2, compound 10 uM; for remaining activity at 10 µM: read-out: % Enzyme Activity (relative to DMSO controls)
T9 construct: purchased Reaction Biology (HotSpot contract assay)

382 unique human kinases [10] = target: T10, 382 unique human kinases (Homo sapiens, UniProt Q76MJ5); conditions: ERN2/IRE2, 10 uM; for remaining activity at 10 µM: read-out: % Enzyme Activity (relative to DMSO controls)
T10 construct: purchased Reaction Biology (HotSpot contract assay)

382 unique human kinases [11] = target: T11, 382 unique human kinases (Homo sapiens, UniProt Q96L34); conditions: kinase MARK4, compound 10 uM; for remaining activity at 10 µM: read-out: % Enzyme Activity (relative to DMSO controls)
T11 construct: purchased Reaction Biology (HotSpot contract assay)
T11 sequence (Q96L34 1-752): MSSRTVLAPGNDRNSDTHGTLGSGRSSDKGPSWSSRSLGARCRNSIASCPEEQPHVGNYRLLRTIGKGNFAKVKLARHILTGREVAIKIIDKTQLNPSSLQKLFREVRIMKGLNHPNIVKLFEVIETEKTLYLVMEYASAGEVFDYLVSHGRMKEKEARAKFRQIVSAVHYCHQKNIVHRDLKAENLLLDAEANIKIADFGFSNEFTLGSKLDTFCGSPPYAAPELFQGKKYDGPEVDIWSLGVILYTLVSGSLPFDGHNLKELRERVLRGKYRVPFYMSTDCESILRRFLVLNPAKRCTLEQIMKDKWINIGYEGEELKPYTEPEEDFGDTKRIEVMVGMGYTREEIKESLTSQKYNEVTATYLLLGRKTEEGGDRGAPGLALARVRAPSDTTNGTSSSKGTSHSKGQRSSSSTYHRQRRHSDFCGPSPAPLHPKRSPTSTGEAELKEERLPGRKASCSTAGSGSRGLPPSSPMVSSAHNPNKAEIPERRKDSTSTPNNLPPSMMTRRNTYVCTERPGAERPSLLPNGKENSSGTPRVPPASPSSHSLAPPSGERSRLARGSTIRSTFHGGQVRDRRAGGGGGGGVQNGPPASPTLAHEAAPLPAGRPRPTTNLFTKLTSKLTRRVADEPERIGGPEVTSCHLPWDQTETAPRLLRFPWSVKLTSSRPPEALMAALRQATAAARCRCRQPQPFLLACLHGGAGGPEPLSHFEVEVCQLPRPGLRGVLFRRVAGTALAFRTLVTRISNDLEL

382 unique human kinases [12] = target: 382 unique human kinases (Homo sapiens, UniProt Q9H1R3); conditions: kinase MLCK2/MYLK2, compound 10 uM; for remaining activity at 10 µM: read-out: % Enzyme Activity (relative to DMSO controls)
382 unique human kinases (Homo sapiens, UniProt Q9H1R3), sequence (Q9H1R3 whole entry): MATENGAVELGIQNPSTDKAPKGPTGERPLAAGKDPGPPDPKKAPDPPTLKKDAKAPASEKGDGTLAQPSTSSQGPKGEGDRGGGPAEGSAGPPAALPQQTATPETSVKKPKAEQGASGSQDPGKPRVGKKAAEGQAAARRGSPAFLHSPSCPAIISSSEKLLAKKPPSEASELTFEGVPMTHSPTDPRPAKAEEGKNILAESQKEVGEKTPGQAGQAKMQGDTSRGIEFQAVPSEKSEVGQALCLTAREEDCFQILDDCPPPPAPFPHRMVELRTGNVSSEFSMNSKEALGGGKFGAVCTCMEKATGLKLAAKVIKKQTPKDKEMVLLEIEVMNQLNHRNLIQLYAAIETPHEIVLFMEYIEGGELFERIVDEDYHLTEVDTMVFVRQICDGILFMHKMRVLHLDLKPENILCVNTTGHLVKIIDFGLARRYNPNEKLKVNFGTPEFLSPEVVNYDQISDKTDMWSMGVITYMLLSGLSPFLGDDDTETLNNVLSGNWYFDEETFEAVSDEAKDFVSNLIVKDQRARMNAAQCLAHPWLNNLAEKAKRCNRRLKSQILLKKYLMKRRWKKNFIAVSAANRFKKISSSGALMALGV

T9 sequence (Q05397 whole entry): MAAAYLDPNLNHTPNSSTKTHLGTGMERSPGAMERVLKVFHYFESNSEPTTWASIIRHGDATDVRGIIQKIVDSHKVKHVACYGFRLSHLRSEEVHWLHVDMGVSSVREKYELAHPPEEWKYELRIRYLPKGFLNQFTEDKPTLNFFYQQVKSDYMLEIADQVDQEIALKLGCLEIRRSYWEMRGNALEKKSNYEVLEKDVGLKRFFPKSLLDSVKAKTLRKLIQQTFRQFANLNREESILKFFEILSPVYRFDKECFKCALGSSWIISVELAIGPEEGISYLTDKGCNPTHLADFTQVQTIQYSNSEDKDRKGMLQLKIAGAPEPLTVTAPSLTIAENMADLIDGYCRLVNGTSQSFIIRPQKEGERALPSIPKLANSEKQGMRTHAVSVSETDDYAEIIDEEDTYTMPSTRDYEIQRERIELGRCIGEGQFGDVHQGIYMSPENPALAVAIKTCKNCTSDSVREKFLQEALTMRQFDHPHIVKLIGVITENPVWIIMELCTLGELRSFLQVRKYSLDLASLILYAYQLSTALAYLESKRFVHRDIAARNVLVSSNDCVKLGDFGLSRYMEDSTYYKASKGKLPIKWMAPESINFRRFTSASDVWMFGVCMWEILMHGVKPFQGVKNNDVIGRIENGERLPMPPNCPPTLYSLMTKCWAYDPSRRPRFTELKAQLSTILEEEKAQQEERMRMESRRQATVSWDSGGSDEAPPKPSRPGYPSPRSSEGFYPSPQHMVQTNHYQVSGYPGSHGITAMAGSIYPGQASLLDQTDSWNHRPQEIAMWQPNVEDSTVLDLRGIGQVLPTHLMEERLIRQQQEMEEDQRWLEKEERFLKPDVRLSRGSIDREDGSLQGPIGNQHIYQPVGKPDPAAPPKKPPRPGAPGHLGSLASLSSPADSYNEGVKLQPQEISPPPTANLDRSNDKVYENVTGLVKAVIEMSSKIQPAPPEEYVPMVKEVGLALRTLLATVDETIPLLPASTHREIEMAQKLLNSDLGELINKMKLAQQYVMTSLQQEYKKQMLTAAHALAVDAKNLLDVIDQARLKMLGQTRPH
T7 sequence (P10721 26-976): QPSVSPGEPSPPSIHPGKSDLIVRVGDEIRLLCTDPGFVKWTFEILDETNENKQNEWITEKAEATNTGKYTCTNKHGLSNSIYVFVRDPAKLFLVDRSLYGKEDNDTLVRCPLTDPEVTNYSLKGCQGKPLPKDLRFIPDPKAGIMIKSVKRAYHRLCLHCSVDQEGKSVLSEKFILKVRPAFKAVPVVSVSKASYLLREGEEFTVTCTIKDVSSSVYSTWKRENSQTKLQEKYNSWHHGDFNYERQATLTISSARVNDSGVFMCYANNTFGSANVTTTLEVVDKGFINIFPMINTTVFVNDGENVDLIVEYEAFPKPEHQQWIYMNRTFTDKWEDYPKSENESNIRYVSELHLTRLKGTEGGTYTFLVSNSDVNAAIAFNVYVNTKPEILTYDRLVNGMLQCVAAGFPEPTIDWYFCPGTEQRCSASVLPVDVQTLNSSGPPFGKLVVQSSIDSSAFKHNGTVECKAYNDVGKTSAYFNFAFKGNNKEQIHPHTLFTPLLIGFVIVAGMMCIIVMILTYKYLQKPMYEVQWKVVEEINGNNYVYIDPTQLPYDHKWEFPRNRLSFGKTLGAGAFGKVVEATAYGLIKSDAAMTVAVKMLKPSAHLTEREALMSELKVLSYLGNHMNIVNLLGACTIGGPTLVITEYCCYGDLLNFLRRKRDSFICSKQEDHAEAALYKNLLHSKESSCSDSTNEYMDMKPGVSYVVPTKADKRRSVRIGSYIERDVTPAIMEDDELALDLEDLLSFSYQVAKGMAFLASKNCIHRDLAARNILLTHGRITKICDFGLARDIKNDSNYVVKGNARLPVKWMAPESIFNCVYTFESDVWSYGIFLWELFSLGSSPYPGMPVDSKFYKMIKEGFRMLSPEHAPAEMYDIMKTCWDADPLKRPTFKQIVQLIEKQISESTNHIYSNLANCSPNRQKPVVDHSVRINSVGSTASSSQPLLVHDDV
T3 sequence (P78368 whole entry): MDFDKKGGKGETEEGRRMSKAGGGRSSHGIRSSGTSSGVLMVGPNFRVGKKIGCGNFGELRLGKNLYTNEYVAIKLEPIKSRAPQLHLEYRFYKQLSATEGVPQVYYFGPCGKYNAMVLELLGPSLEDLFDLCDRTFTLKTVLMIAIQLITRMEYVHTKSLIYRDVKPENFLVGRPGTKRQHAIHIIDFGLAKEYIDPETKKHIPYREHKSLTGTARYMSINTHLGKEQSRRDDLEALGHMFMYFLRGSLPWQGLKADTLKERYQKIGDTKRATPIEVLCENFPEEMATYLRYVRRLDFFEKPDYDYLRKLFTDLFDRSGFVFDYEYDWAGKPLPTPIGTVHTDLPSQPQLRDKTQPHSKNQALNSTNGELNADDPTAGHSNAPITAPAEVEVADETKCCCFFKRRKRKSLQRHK
T10 sequence (Q76MJ5 35-926): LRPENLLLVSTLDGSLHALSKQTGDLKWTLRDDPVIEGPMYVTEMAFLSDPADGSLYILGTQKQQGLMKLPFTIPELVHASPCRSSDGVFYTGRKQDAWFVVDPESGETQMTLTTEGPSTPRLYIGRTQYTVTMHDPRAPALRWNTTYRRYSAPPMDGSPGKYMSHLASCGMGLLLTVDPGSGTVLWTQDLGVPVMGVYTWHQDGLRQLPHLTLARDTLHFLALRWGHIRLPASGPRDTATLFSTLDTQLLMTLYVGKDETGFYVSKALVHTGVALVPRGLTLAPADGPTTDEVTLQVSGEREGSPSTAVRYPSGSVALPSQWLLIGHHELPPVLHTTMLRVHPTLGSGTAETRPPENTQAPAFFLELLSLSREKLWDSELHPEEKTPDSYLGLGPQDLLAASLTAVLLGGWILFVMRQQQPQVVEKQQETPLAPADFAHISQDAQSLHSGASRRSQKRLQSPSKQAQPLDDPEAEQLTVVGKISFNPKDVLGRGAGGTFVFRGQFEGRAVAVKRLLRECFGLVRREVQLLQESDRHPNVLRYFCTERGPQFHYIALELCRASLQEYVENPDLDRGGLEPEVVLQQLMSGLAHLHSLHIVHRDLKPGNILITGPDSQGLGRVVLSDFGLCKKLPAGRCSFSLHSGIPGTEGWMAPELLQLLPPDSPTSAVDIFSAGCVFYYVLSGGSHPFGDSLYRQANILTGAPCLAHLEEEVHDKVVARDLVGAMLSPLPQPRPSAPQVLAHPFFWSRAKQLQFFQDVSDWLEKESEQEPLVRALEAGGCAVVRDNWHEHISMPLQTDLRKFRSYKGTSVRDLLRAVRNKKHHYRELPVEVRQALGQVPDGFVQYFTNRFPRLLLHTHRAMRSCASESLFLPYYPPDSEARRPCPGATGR
T2 sequence (P34947 whole entry): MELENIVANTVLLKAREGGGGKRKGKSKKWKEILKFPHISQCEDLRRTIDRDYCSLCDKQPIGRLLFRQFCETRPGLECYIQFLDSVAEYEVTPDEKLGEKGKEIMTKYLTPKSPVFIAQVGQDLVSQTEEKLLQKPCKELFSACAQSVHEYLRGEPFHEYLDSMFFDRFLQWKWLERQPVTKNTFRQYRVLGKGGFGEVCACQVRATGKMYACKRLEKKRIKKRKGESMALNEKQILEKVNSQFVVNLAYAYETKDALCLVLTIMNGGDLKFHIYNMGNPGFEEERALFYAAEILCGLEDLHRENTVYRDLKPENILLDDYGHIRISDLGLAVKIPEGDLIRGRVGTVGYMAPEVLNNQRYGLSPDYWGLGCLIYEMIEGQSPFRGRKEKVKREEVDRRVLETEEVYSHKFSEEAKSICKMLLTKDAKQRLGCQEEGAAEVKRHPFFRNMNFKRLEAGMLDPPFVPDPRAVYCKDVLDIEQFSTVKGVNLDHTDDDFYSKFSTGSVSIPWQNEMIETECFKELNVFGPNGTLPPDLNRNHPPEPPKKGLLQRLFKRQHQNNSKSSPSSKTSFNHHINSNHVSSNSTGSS
T8 sequence (P10721 26-976 D820E): as the sequence (P10721 26-976) above, with D795E counted along it

| SMILES | remaining activity at 10 µM (382 unique human kinases [1]) [%] | remaining activity at 10 µM (382 unique human kinases [2]) [%] | remaining activity at 10 µM (382 unique human kinases [3]) [%] | remaining activity at 10 µM (382 unique human kinases [4]) [%] | remaining activity at 10 µM (382 unique human kinases [5]) [%] | remaining activity at 10 µM (382 unique human kinases [6]) [%] | remaining activity at 10 µM (382 unique human kinases [7]) [%] | remaining activity at 10 µM (382 unique human kinases [8]) [%] | remaining activity at 10 µM (382 unique human kinases [9]) [%] | remaining activity at 10 µM (382 unique human kinases [10]) [%] | remaining activity at 10 µM (382 unique human kinases [11]) [%] | remaining activity at 10 µM (382 unique human kinases [12]) [%] | further results |
| --- | --- | --- | --- | --- | --- | --- | --- | --- | --- | --- | --- | --- | --- |
| CCNC(=O)c1noc(-c2cc(C(C)C)c(O)cc2O)c1-c1ccc(CN2CCOCC2)cc1 [Luminespib] | 5.53 | 102 | 99.4 | 91.6 | 96.8 |  |  |  |  |  |  |  | % Enzyme Activity (relative to DMSO controls) (382 unique human kinases [1]): 5.21%; % Enzyme Activity (relative to DMSO controls) (382 unique human kinases [2]): 101.05%; % Enzyme Activity (relative to DMSO controls) (382 unique human kinases [3]): 97.43%; % Enzyme Activity (relative to DMSO controls) (382 unique human kinases [4]): 91.21%; % Enzyme Activity (relative to DMSO controls) (382 unique human kinases [5]): 96.29% |
| CC(C)c1cc(-c2n[nH]c(=O)n2-c2ccc3c(ccn3C)c2)c(O)cc1O [Ganetespib (STA9090)] |  |  |  |  |  | 67.9 | 80.8 | 72.5 | 91.3 | 66.7 | 91 | 80.2 |  |
| CCNC(=O)c1noc(-c2cc(C(C)C)c(O)cc2O)c1-c1ccc(CN2CCOCC2)cc1 [Luminespib (AUY-922)] |  |  |  |  |  | 102 | 72.9 | 88.4 | 98 | 108 | 97.1 | 95.1 | % Enzyme Activity (relative to DMSO controls) (382 unique human kinases [6]): 98.51%; % Enzyme Activity (relative to DMSO controls) (382 unique human kinases [7]): 72.90%; % Enzyme Activity (relative to DMSO controls) (382 unique human kinases [8]): 88.12%; % Enzyme Activity (relative to DMSO controls) (382 unique human kinases [9]): 96.62%; % Enzyme Activity (relative to DMSO controls) (382 unique human kinases [10]): 105.69%; % Enzyme Activity (relative to DMSO controls) (382 unique human kinases [11]): 95.99%; % Enzyme Activity (relative to DMSO controls) (382 unique human kinases [12]): 91.17% |
| CC(C)c1cc(-c2n[nH]c(=O)n2-c2ccc3c(ccn3C)c2)c(O)cc1O [Ganetespib] | 1.72 | 96 | 110 | 97.8 | 93 |  |  |  |  |  |  |  |  |
